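Growth conditions: 96-well plates. Treatment: test compound, 48 hours, 5 concentrations. Analysis: linear interpolation between bracketing concentrations; unreached endpoints set to highest concentration. Abbreviation: GI50, concentration required for 50% inhibition of growth. TGI denotes the concentration required for complete inhibition of growth.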
Tests used:
Assay in all cases: NCI tumour cell line growth inhibition, 48 h
[1] = tested on: SK-MEL-28 melanoma
[2] = tested on: NCI-H522 lung
[3] = tested on: MALME-3M melanoma
[4] = tested on: SF-268 CNS
[5] = tested on: SK-OV-3 ovarian
[6] = tested on: NCI-H23 lung
[7] = tested on: PC-3 prostate
[8] = tested on: UACC-62 melanoma
[9] = tested on: LOX IMVI melanoma
[10] = tested on: SN12C renal
[11] = tested on: OVCAR-8 ovarian
[12] = tested on: NCI-H226 lung
[13] = tested on: MOLT-4 leukemia
[14] = tested on: SR leukemia
[15] = tested on: EKVX NSCLC
[16] = tested on: UO-31 renal
[17] = tested on: SK-MEL-2 melanoma
[18] = tested on: CCRF-CEM leukemia
[19] = tested on: HOP-62 NSCLC
[20] = tested on: HT29 colon
[21] = tested on: HOP-92 NSCLC
[22] = tested on: RXF 393 renal
[23] = tested on: A498 renal
[24] = tested on: COLO 205 colon
[25] = tested on: MDA-MB-435
[26] = tested on: RPMI-8226 leukemia
[27] = tested on: ACHN renal

NC(N)=Nc1ccc(Oc2cccc(NC(N)=Nc3ccc(Cl)c(C(F)(F)F)c3)c2)cn1
GI50 [1]: 2040 nM | TGI [1]: 5920 nM | GI50 [2]: 2190 nM | TGI [2]: 5810 nM | GI50 [3]: 2300 nM | TGI [3]: 7910 nM | GI50 [4]: 1090 nM | TGI [4]: 2540 nM | GI50 [5]: 2700 nM | TGI [5]: 10400 nM | GI50 [6]: 1730 nM | TGI [6]: 4150 nM | GI50 [7]: 1070 nM | TGI [7]: 2620 nM | GI50 [8]: 2380 nM | TGI [8]: 12700 nM | GI50 [9]: 1400 nM | TGI [9]: 2740 nM | GI50 [10]: 2200 nM | TGI [10]: 8970 nM | GI50 [11]: 3300 nM | TGI [11]: 18700 nM | GI50 [12]: 2180 nM | TGI [12]: 6250 nM | GI50 [13]: 2160 nM | TGI [13]: 8080 nM | GI50 [14]: 1420 nM | TGI [14]: 3760 nM | GI50 [15]: 2770 nM | TGI [15]: 13500 nM | GI50 [16]: 12900 nM | TGI [16]: 29600 nM | GI50 [17]: 1780 nM | TGI [17]: 3370 nM | GI50 [18]: 2270 nM | TGI [18]: 10300 nM | GI50 [19]: 2050 nM | TGI [19]: 5760 nM | GI50 [20]: 1910 nM | TGI [20]: 5640 nM | GI50 [21]: 1160 nM | TGI [21]: 3430 nM | GI50 [22]: 1830 nM | TGI [22]: 4780 nM | GI50 [23]: 1690 nM | TGI [23]: 6240 nM | GI50 [24]: 1430 nM | TGI [24]: 3080 nM | GI50 [25]: 1660 nM | TGI [25]: 3660 nM | GI50 [26]: 1560 nM | TGI [26]: 4000 nM | GI50 [27]: 13300 nM | TGI [27]: 29400 nM
